For 15 compounds, TGI and GI50 results are on record in PubChem BioAssay (NCI).

Among the test systems are CCRF-CEM leukemia; HCT-15 colon; K-562 leukemia; RPMI-8226 leukemia; RXF 393 renal; SNB-19 CNS; SW-620 colon; TK-10 renal; UACC-62 melanoma; HS 578T breast.
Holding throughout (experiment): inhibition of tumour cell growth, NCI panel, 48 h

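Method: 48-hour compound exposure of cells in 96-well plates, five concentrations, linear interpolation of endpoints. GI50 marks 50% less growth. Definition used: TGI = concentration required for complete inhibition of growth.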 Where a SMILES comes first, the peptide text is derived from it. [ ]: non-standard residue; d: D form.

`CN(C)C(=O)N1N[C@H](c2ccccc2)[C@@H]1c1ccccc1`: the TGI in the assay on CCRF-CEM leukemia, in the assay on HCT-15 colon, in the assay on K-562 leukemia, in the assay on RPMI-8226 leukemia, with RXF 393 renal and with SNB-19 CNS was more than 100 µM in each case. For the same compound, the TGI in the assay with SW-620 colon, with TK-10 renal and in the assay with UACC-62 melanoma was more than 100 µM in each case.
Regarding `CC(C)OC1=C(CC2(C)OCCO2)C(=O)C12OCCO2`, the TGI in the assay on CCRF-CEM leukemia, in the assay with HCT-15 colon, with HS 578T breast, in the assay on SNB-19 CNS, in the assay with SW-620 colon and in the assay on TK-10 renal was more than 100 µM each time. In addition, the TGI in the assay on UACC-62 melanoma is more than 100 µM.
As to `COc1cc(C2c3cccc4cccc(c34)C3CCC(=O)N32)cc(OC)c1O` (stereo not given), the TGI in the assay with CCRF-CEM leukemia, in the assay on HCT-15 colon, with K-562 leukemia, in the assay on RPMI-8226 leukemia, in the assay with RXF 393 renal and in the assay on SNB-19 CNS was more than 50 µM each time. The TGI with SW-620 colon and in the assay on UACC-62 melanoma was more than 50 µM each time.
For the compound `O=C1Sc2ccccc2C(=O)N2CCSC12` (stereo not given), the TGI in the assay with CCRF-CEM leukemia, with HCT-15 colon, in the assay on K-562 leukemia, in the assay with RPMI-8226 leukemia, with RXF 393 renal and in the assay with SNB-19 CNS was more than 100 µM each time. The TGI in the assay on SW-620 colon, in the assay on TK-10 renal and with UACC-62 melanoma was more than 100 µM each time.
For `COc1ccc(C2N(c3ccc(C)c(N=C=O)c3)C(=O)N3C(c4ccc(OC)cc4)N(c4ccc(C)c(N=C=O)c4)C(=O)N23)cc1` (stereo not given), the TGI in the assay with CCRF-CEM leukemia, in the assay on HCT-15 colon, in the assay with K-562 leukemia, in the assay on RPMI-8226 leukemia, in the assay with RXF 393 renal and in the assay on SNB-19 CNS was more than 100 µM throughout. In addition, the TGI in the assay with SW-620 colon and in the assay with TK-10 renal was more than 100 µM throughout.
In the case of `C=C(C)C1(Sc2ccc(OC)cc2)CC1`, the TGI in the assay on CCRF-CEM leukemia is more than 100 µM; with HCT-15 colon, more than 100 µM; in the assay on K-562 leukemia, more than 100 µM; with RPMI-8226 leukemia it was more than 100 µM; with RXF 393 renal it was 36.3 µM; in the assay with SNB-19 CNS, more than 100 µM. Moreover, the TGI in the assay with SW-620 colon, in the assay on TK-10 renal and in the assay on UACC-62 melanoma was more than 100 µM each time.
In the case of `Cc1cc(C)[n+]2c(c1)C=CC2`, the TGI with RXF 393 renal was 25.1 µM; in the assay with SNB-19 CNS it was more than 100 µM; with SW-620 colon, more than 100 µM; in the assay on TK-10 renal, more than 100 µM.
As to `O=c1c2cccnc2oc2c(Cl)cc(-c3nn[nH]n3)cc12`, the TGI with CCRF-CEM leukemia, in the assay on HCT-15 colon, in the assay with HS 578T breast, in the assay with K-562 leukemia, in the assay on RXF 393 renal and in the assay on SNB-19 CNS was more than 100 µM in each case. The TGI with SW-620 colon, with TK-10 renal and in the assay on UACC-62 melanoma was more than 100 µM in each case.
`COC(=O)/C1=C/C=C\C[C@@]2(C)CC(c3ccoc3)OC(=O)[C@@H]2CC[C@H]1C` (stereo not given in full): the TGI in the assay on CCRF-CEM leukemia, with HCT-15 colon, in the assay with HS 578T breast, in the assay with K-562 leukemia, with RXF 393 renal and in the assay with SNB-19 CNS was more than 25 µM each time. Besides, the TGI in the assay on SW-620 colon, in the assay on TK-10 renal and in the assay on UACC-62 melanoma was more than 25 µM in each case.
Regarding `O=C1C(Cl)N(c2ccc([N+](=O)[O-])cc2)C1c1c[nH]c2ccccc12` (stereo not given), the TGI in the assay with CCRF-CEM leukemia, in the assay with K-562 leukemia, in the assay on RPMI-8226 leukemia, in the assay on RXF 393 renal, with SNB-19 CNS and in the assay on SW-620 colon was more than 100 µM each time. In addition, the TGI in the assay with TK-10 renal and with UACC-62 melanoma was more than 100 µM in each case.
Regarding `COc1cc2c3c(n(C)c(=O)c2cc1OC)-c1cc2c(cc1/C3=C\CCCCl)OCO2`, the TGI in the assay with CCRF-CEM leukemia is more than 100 µM; in the assay on HCT-15 colon, more than 100 µM; with HS 578T breast, more than 100 µM; in the assay with K-562 leukemia it was more than 100 µM; in the assay on RXF 393 renal, 26.8 µM; in the assay on SNB-19 CNS, more than 100 µM. Also, the TGI in the assay with SW-620 colon was more than 100 µM; in the assay with TK-10 renal it was 37.3 µM; in the assay on UACC-62 melanoma, more than 100 µM. Besides, the GI50 in the assay with UACC-62 melanoma was 33.3 µM.
For the compound `OC(CCN1CCN(CCOC(c2ccccc2)c2ccccc2)CC1)c1ccccc1` (stereo not given), the TGI was more than 100 µM with CCRF-CEM leukemia; 37.1 µM in the assay with HCT-15 colon; 45 µM in the assay with HS 578T breast; 48.6 µM in the assay with RXF 393 renal; 88.6 µM in the assay on SNB-19 CNS; more than 100 µM with SW-620 colon. Also, the TGI amounted to 59.8 µM in the assay with TK-10 renal and 30.2 µM with UACC-62 melanoma.
For the compound `NC1(c2cc3ccccc3s2)CCCCCC1`, the TGI in the assay on CCRF-CEM leukemia came out at 35.4 µM; in the assay with HCT-15 colon, 36.9 µM; in the assay on K-562 leukemia, 28.1 µM; in the assay on RXF 393 renal, 25.4 µM; in the assay on SNB-19 CNS, 34.8 µM; in the assay with SW-620 colon it was 31.1 µM. Further, the TGI stood at 28.8 µM with TK-10 renal and 31.9 µM with UACC-62 melanoma.
With `CC(C)C[C@H](NC(=O)[C@H](CC(C)C)NC(=O)[C@@H](Cc1c[nH]c2ccccc12)NC(=O)[C@H](Cc1ccccc1)NC(=O)[C@@H](Cc1c[nH]c2ccccc12)NC(=O)[C@H](CCC(N)=O)NC(=O)[C@@H](CCC(N)=O)NC(=O)[C@@H]1CCCN1C(=O)[C@@H](CCCCN)NC(=O)[C@H]1CCCN1C(=O)[C@H](N)CCCN=C(N)N)C(N)=O` (H-[dR][dP][dK]P[dQ]Q[dW]F[dW]LL-NH2), the TGI with CCRF-CEM leukemia, in the assay with HCT-15 colon, in the assay with K-562 leukemia, in the assay with RPMI-8226 leukemia, in the assay with RXF 393 renal and in the assay on SNB-19 CNS was more than 100 µM throughout. Also, the TGI with SW-620 colon and in the assay with UACC-62 melanoma was more than 100 µM throughout.
In the case of `O=c1c(O)c(-c2ccccc2)oc2c(CP(=O)(O)O)cccc12`, the TGI in the assay with CCRF-CEM leukemia, in the assay with HCT-15 colon, with K-562 leukemia, in the assay with RXF 393 renal, in the assay with TK-10 renal and in the assay on UACC-62 melanoma was more than 100 µM throughout.
